# Reference: PubChem BioAssay (NCI)
#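 Results reflect a 48-hour exposure of cells in 96-well plates to compound at five concentrations. At the TGI there is no net growth.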
# Legend:
# Assay in all cases: NCI tumour cell line growth inhibition, 48 h
# [1] = test system: SF-268 CNS
# [2] = test system: UACC-62 melanoma
# [3] = test system: ACHN renal
# [4] = test system: SN12C renal
# [5] = test system: UO-31 renal
# [6] = test system: RXF-631 renal
# [7] = test system: NCI-H226 lung
# [8] = test system: SNB-75 CNS
# [9] = test system: MALME-3M melanoma
# [10] = test system: OVCAR-8 ovarian
# [11] = test system: UACC-257 melanoma
# [12] = test system: DMS 114 small cell lung
# [13] = test system: TK-10 renal
# [14] = test system: OVCAR-3 ovarian
# [15] = test system: OVCAR-5 ovarian
# [16] = test system: HOP-92 NSCLC
# [17] = test system: RPMI-8226 leukemia
# [18] = test system: U251 CNS
# [19] = test system: RXF 393 renal
# [20] = test system: KM20L2 colon
# [21] = test system: NCI-H522 lung
# [22] = test system: NCI-H460 lung
# [23] = test system: CAKI-1 renal
# [24] = test system: LXFL 529 NSCLC
# [25] = test system: A549 NSCLC
# [26] = test system: DMS 273 small cell lung
# [27] = test system: SNB-19 CNS
# [28] = test system: A498 renal
# [29] = test system: CCRF-CEM leukemia
# [30] = test system: HCT-116 colon
# [31] = test system: IGROV1 ovarian
# [32] = test system: M14 melanoma
# [33] = test system: DLD-1 colon
# [34] = test system: M19-MEL melanoma
# [35] = test system: HT29 colon
# [36] = test system: SF-295 CNS
# [37] = test system: SK-MEL-28 melanoma
# [38] = test system: 786-0 renal
# [39] = test system: HCT-15 colon
# [40] = test system: SNB-78 CNS
# [41] = test system: HOP-18 NSCLC
# [42] = test system: K-562 leukemia
# [43] = test system: OVCAR-4 ovarian
# [44] = test system: LOX IMVI melanoma
# [45] = test system: HOP-62 NSCLC
# [46] = test system: COLO 205 colon
# [47] = test system: SF-539 CNS
# [48] = test system: SK-MEL-5 melanoma
# [49] = test system: SW-620 colon
# [50] = test system: EKVX NSCLC
# [51] = test system: HL-60(TB) leukemia
# [52] = test system: SK-OV-3 ovarian
# [53] = test system: SR leukemia
# [54] = test system: MOLT-4 leukemia
# [55] = test system: HCC-2998 colon
# [56] = test system: KM12 colon
# [57] = test system: SK-MEL-2 melanoma
# [58] = test system: XF 498 CNS
# [59] = test system: NCI-H23 lung
# [60] = test system: MDA-MB-435
# [61] = test system: PC-3 prostate
# [62] = test system: DU-145 prostate
# [63] = test system: BT-549 breast
# [64] = test system: MCF7 breast
# [65] = test system: T-47D breast
# [66] = test system: MDA-N
# [67] = test system: MDA-MB-231 breast
smiles,measurement,setting,value
CCOC(OCC)c1ccc(/C=C/c2cc(OC)c(OC)c(OC)c2)cc1,TGI,[1],71.8 µM
same,TGI,[2],33.2 µM
same,TGI,[3],> 100 µM
same,TGI,[4],36.9 µM
same,TGI,[5],45.7 µM
same,TGI,[6],70.7 µM
same,TGI,[7],62.5 µM
same,TGI,[8],57.5 µM
same,TGI,[9],43.8 µM
same,TGI,[10],76.3 µM
same,TGI,[11],51.2 µM
same,TGI,[12],50.2 µM
same,TGI,[13],82 µM
same,TGI,[14],38 µM
same,TGI,[15],55.7 µM
same,TGI,[16],64.7 µM
same,TGI,[17],63 µM
same,TGI,[18],32.2 µM
same,TGI,[19],40.9 µM
same,TGI,[20],41.8 µM
same,TGI,[21],> 100 µM
same,TGI,[22],38.1 µM
same,TGI,[23],74.3 µM
same,TGI,[24],41.7 µM
same,TGI,[25],95.2 µM
same,TGI,[26],41.3 µM
same,TGI,[27],> 100 µM
same,TGI,[28],45.4 µM
same,TGI,[29],37.3 µM
same,TGI,[30],30.7 µM
same,TGI,[31],> 100 µM
same,TGI,[32],31.9 µM
same,TGI,[33],38.8 µM
same,TGI,[34],37 µM
same,TGI,[35],33.6 µM
same,TGI,[36],40.4 µM
same,TGI,[37],56.7 µM
same,TGI,[38],60.1 µM
same,TGI,[39],30.7 µM
same,TGI,[40],87.9 µM
same,TGI,[41],> 100 µM
same,TGI,[42],39.8 µM
same,TGI,[43],68.1 µM
same,TGI,[44],25 µM
same,TGI,[45],56.6 µM
same,TGI,[46],33.5 µM
same,TGI,[47],29.8 µM
same,TGI,[48],28.5 µM
same,TGI,[49],56.3 µM
same,TGI,[50],> 100 µM
same,TGI,[51],30.1 µM
CN(C)c1nc(N(C)C)n2nc(-c3ccccc3[N+](=O)[O-])nc2n1,TGI,[1],> 100 µM
same,TGI,[2],> 100 µM
same,TGI,[3],> 100 µM
same,TGI,[4],> 100 µM
same,TGI,[5],> 100 µM
same,TGI,[7],> 100 µM
same,TGI,[8],> 100 µM
same,TGI,[9],> 100 µM
same,TGI,[10],> 100 µM
same,TGI,[11],> 100 µM
same,TGI,[12],> 100 µM
same,TGI,[13],> 100 µM
same,TGI,[14],> 100 µM
same,TGI,[52],> 100 µM
same,TGI,[15],> 100 µM
same,TGI,[53],> 100 µM
same,TGI,[54],> 100 µM
same,TGI,[16],> 100 µM
same,TGI,[17],> 100 µM
same,TGI,[18],> 100 µM
same,TGI,[19],> 100 µM
same,TGI,[20],> 100 µM
same,TGI,[21],> 100 µM
same,TGI,[22],> 100 µM
same,TGI,[23],> 100 µM
same,TGI,[24],> 100 µM
same,TGI,[25],> 100 µM
same,TGI,[26],> 100 µM
same,TGI,[27],> 100 µM
same,TGI,[28],> 100 µM
same,TGI,[29],> 100 µM
same,TGI,[30],89.2 µM
same,TGI,[55],> 100 µM
same,TGI,[56],> 100 µM
same,TGI,[31],> 100 µM
same,TGI,[32],> 100 µM
same,TGI,[33],> 100 µM
same,TGI,[57],> 100 µM
same,TGI,[34],> 100 µM
same,TGI,[35],> 100 µM
same,TGI,[36],> 100 µM
same,TGI,[37],> 100 µM
same,TGI,[38],> 100 µM
same,TGI,[58],> 100 µM
same,TGI,[59],> 100 µM
same,TGI,[39],31.3 µM
same,TGI,[40],> 100 µM
same,TGI,[41],> 100 µM
same,TGI,[42],> 100 µM
same,TGI,[43],> 100 µM
same,TGI,[44],> 100 µM
same,TGI,[45],> 100 µM
same,TGI,[46],> 100 µM
same,TGI,[47],> 100 µM
same,TGI,[48],> 100 µM
same,TGI,[49],24.2 µM
same,TGI,[50],> 100 µM
same,TGI,[51],> 100 µM
CN(C)CCNC(=O)c1cccc2nc3c4ccccc4c4ccccc4c3nc12,TGI,[1],0.632 µM
same,TGI,[60],3.42 µM
same,TGI,[2],5.51 µM
same,TGI,[3],12.4 µM
same,TGI,[4],3.64 µM
same,TGI,[61],3.05 µM
same,TGI,[5],22.9 µM
same,TGI,[7],28.1 µM
same,TGI,[8],8.85 µM
same,TGI,[9],3.6 µM
same,TGI,[10],7.76 µM
same,TGI,[62],3.2 µM
same,TGI,[11],10.6 µM
same,TGI,[13],9.86 µM
same,TGI,[63],6.25 µM
same,TGI,[14],7 µM
same,TGI,[52],13.4 µM
same,TGI,[15],14.2 µM
same,TGI,[64],3.47 µM
same,TGI,[53],13 µM
same,TGI,[54],4.96 µM
same,TGI,[16],39.4 µM
same,TGI,[17],5.3 µM
same,TGI,[18],4.56 µM
same,TGI,[19],4.65 µM
same,TGI,[20],10.3 µM
same,TGI,[21],23.4 µM
same,TGI,[22],2.35 µM
same,TGI,[65],34.1 µM
same,TGI,[23],47.7 µM
same,TGI,[24],10.1 µM
same,TGI,[25],12.2 µM
same,TGI,[26],> 100 µM
same,TGI,[27],8.6 µM
same,TGI,[28],15.6 µM
same,TGI,[29],3.03 µM
same,TGI,[66],3.06 µM
same,TGI,[30],3.21 µM
same,TGI,[55],11.5 µM
same,TGI,[56],3.06 µM
same,TGI,[31],12.3 µM
same,TGI,[32],4.97 µM
same,TGI,[33],2.9 µM
same,TGI,[57],8.24 µM
same,TGI,[34],3.4 µM
same,TGI,[35],3.01 µM
same,TGI,[36],10.1 µM
same,TGI,[37],3.27 µM
same,TGI,[58],9.06 µM
same,TGI,[59],3.41 µM
same,TGI,[39],3.13 µM
same,TGI,[40],37.6 µM
same,TGI,[41],20.1 µM
same,TGI,[42],3.57 µM
same,TGI,[43],3.24 µM
same,TGI,[44],3.13 µM
same,TGI,[45],34.2 µM
same,TGI,[46],19.3 µM
same,TGI,[47],3.18 µM
same,TGI,[48],15.7 µM
same,TGI,[67],3.32 µM
same,TGI,[49],6.59 µM
same,TGI,[50],11 µM
same,TGI,[51],4.09 µM
